# Source: publication PMC3479105, “K-134, a Phosphodiesterase 3 Inhibitor, Prevents Brain Damage by Inhibiting Thrombus Formation in a Rat Cerebral Infarction Model” (PLoS ONE, 2012)
# Where two headings read alike, the source gives them in different places.
# What was measured:
# bleeding time = assay: Tail bleeding time in mice; type: in vivo, mouse; conditions: single oral 30 mg/kg, 10 min before test, control 110±5 s, not significant
# Procedure: K-134 and warfarin (Sigma Aldrich Co., MO, USA) were suspended and dissolved in 1% HPMC, respectively, and orally administered to ICR mice at 10 min or 24 h before testing of bleeding, respectively. Each mouse was placed in a restrainer, which exposes the tail. A 27G disposable needle (Terumo Co., Tokyo, Japan) was inserted about 6 mm into a tail vein 2 cm from the tip of the tail. Immediately after the operation, sheets of filter paper were placed under the injury site every 15 sec to absorb the blood, and the time point at which no blood was observed on the filter paper was regarded as the bleeding time.
# [1] = Plasma concentration of K-134 in mice; type: in vivo, mouse; conditions: male ICR mice, 10 min after administration, n = 6; for concentration at 10 min: mouse, plasma
# Procedure: We also measured plasma concentration of K-134 at 10 min after a single oral administration of K-134 to male ICR mice (Japan SLC Inc., 5 weeks old).
# [2] = test system: platelet aggregation ex vivo; design: method as in PMID 22269153; conditions: rats, single administration 30 mg/kg; cited from earlier work
# [3] = design: method as in PMID 22269153; conditions: cited from earlier work
# [4] = test system: platelet aggregation ex vivo; assay: Platelet aggregation ex vivo in rats after oral dosing; conditions: Rattus norvegicus, 300 mg/kg oral, 3 h after administration
# Procedure: Cilostazol was orally administered to rats under non-fasting conditions in a single dose. […] Platelet-rich plasma (PRP) was prepared by centrifugation (450 × g, 8 min, 25°C) of blood. PRP was stimulated with adenosine diphosphate (ADP) (final concentration = 4 µM; MC Medical Inc., Tokyo, Japan) or collagen (final concentration = 5 µg/mL; MC Medical Inc.). Platelet aggregation was quantified by measuring the area under the curve (AUC) during the 5 or 7 min after addition of ADP or collagen, respectively, using a light transmittance aggregometer (Hema Tracer 313M; MC Medical Inc.).
# [5] = Pharmacokinetics of cilostazol and its active metabolites in rats; type: in vivo, rat; conditions: single oral cilostazol 300 mg/kg, non-fasting male SD rats, n = 3, parent and metabolites
# Procedure: Pharmacokinetic variables (Cmax, AUC, Tmax and T1/2) were calculated from the plasma drug concentration-time curve. Cilostazol was orally administered to rats under non-fasting conditions at a single dose of 300 mg/kg to determine the concentration-time profile in serum (n = 3). Values are means (± SEM). […]
# [6] = design: method as in PMID 10702882; conditions: human healthy male, single dose 100 mg of cilostazol, cited from earlier work
compound,measurement,setting,value
O=C(NCCCOc1ccc2[nH]c(=O)ccc2c1)N(C1CC1)[C@@H]1CCCC[C@H]1O [K-134],bleeding time,bleeding time,106 ± 5 s
same,Plasma concentration of K-134,"[1]; 30 mg/kg single oral, 30 mg/kg",13600 ± 2300 nM
same,concentration at 10 min,[1]; 1 mg/kg single oral,400 nM
same,concentration at 10 min,[1]; 3 mg/kg single oral,1100 ± 200 nM
same,concentration at 10 min,[1]; 10 mg/kg single oral,4300 ± 600 nM
same,concentration at 10 min,[1]; 30 mg/kg single oral,13600 ± 2300 nM
same,inhibition of ADP-induced platelet aggregation ex vivo,[2],about 55%
same,inhibition of collagen-induced platelet aggregation ex vivo,[2],~79%
same,time to plasma peak levels,"[3]; oral administration, conscious male SD rats under fed conditions",1 to 2 h
same,half-life (T1/2),"[3]; rats, 10 mg/kg",about 2 h
O=C1CCc2cc(OCCCCc3nnnn3C3CCCCC3)ccc2N1 [cilostazol],inhibition at 300 mg/kg,[4]; read-out: inhibition of ADP-induced platelet aggregation ex vivo,27%
same,inhibition at 300 mg/kg,[4]; read-out: inhibition of collagen-induced platelet aggregation ex vivo,50%
same,Tmax,"[5]; male, SD, rat, plasma, po, 300 mg/kg, read-out: Tmax",> 3 h
same,Cmax,"[5]; rat, plasma",2400 nM
same,half-life,"[5]; rat, plasma",5.4 h
same,AUC(0-t),"[5]; rat, plasma, read-out: AUC0-24h",30.1 µM·h
same,Tmax,[5],5.8 h
same,Cmax,"[6]; converted from µg/L, read-out: Cmax",1690 nM
same,AUC0–72 h,[6]; converted from µg/L·h,21.89 µM·h
same,AUC0–72 h,[6],about 8087 µg/L·h
same,Cmax,[6],about 625 µg/L
